Assay results from patent US10596259B2, “Tumor radiosensitization with monomethyl auristatin E (MMAE) and derivatives thereof” (The Regents of the University of California, priority 2015, dated 2020).
pIC50: −log10 of the molar value. Like-named read-outs stand apart in the source and are kept apart here.

How the values were obtained:
Test in all cases: Alamar Blue cell viability assay
Assay type in all cases: cell-based, Human
CAL-27 cells = conditions: 72 hours
Procedure: (§1) Alamar Blue (resazurin) was added to the cells and allowed to incubate for 2 hrs at 37° C. Plates were analyzed using a plate reader with fluorescence measured at 560 nm.

SCC-35 cells = conditions: 72 hours
Procedure: as §1

SCC-61 cells = conditions: 72 hours
Procedure: as §1

SQ-9G cells = conditions: 72 hours
Procedure: as §1

HCT-116 cells = conditions: Homo sapiens, HCT-116, 72 h, read-out: IC50
Procedure: (§2) Alamar Blue (also known as resazurin) was added to the cells and allowed to incubate for 2 hrs at 37° C. Plates were analyzed using a plate reader with fluorescence measured at 560 nm. For irradiated cells, cells were treated with MMAE overnight followed by 6 Gy.
as §1
(§3) Cells were plated in 96-well plates and exposed to MMAE or paclitaxel for 72 hours and analyzed at 560 nm. For irradiated cells, cells were treated with MMAE overnight followed by 6 Gy.

779E cells = conditions: Homo sapiens, 72 h
Procedure: as §2, with “Cells were plated in 96 well plates at varying cell densities and exposed to range of concentrations of MMAE or paclitaxel for 72 hrs. Alamar” for “Alamar”
as §3

PANC-1 cells = conditions: Homo sapiens, PANC-1, 72 h, read-out: IC50
Procedure: as §2, with “Cells were plated in 96 well plates at varying cell densities and exposed to range of concentrations of MMAE or paclitaxel for 72 hrs. Alamar” for “Alamar”
as §3

pIC50 (HCT-116 cells; 72 hours exposure (Example 3))	pIC50 (HCT-116 cells; 72 hours exposure)	pIC50 (PANC-1 cells; 72 hours exposure (Example 3))	pIC50 (PANC-1 cells; 72 hours exposure)	SMILES	pIC50 (CAL-27 cells)	pIC50 (SCC-35 cells)	pIC50 (SCC-61 cells)	pIC50 (SQ-9G cells)	pIC50 (779E cells; 72 hours exposure)	pIC50 (779E cells; 72 hours exposure (Example 3))
				N.N.[Cl][Pt][Cl] [cisplatin]	5.30	4.52	5.00	4.89		
8.00	8.00	7.82	7.82	CC(=O)O[C@H]1C(=O)[C@@]2(C)[C@H]([C@H](OC(=O)c3ccccc3)[C@]3(O)C[C@H](OC(=O)[C@H](O)[C@@H](NC(=O)c4ccccc4)c4ccccc4)C(C)=C1C3(C)C)[C@]1(OC(C)=O)CO[C@@H]1C[C@@H]2O [paclitaxel]					7.28	7.28
